Consider seven compounds from patent publication US12391679B2, “Benzamide-substituted bicyclic imidazo- and pyrazolo-fused -pyridine, -pyrimide, and -pyridazine compounds for treatment of inflammatory diseases” (ONCO3R Therapeutics BV, priority 2019, dated 2025).

The target in one test is T1, SIK1 (Homo sapiens, UniProt P57059).
T1 construct: purchased Carna Biosciences 02-131
In words: 33P radioactive kinase assay, SIK1. Type of test: biochemical. Here is the method: (§1) The principle of the ^33P radioactive kinase assay consists in measuring the incorporated ^33P into the substrate AMARA peptide when phosphorylated by SIK1, SIK2 or SIK3 using [^33P]-g-ATP, which correlates with kinase activity.
(§2) The test compounds are prepared as a serial dilution of 10 point dose responses with 1/5 dilution steps in 100% DMSO starting from 2 mM highest concentration, diluted 1/20 in water and 5 μL is transferred to the assay plates (Greiner, Cat #651201).
(§3) 1% DMSO and 10 μM staurosporine final concentrations are used as negative and positive controls.
(§4) 11 μL of enzyme-substrate mixture is added on the assay plates. The reactions are started by adding 9 μL ATP mixture, consisting of non-labeled and ^33P-labeled ATP, on the assay plates.
(§5) The reactions are stopped by adding 25 μL phosphoric acid (150 mM) to the reactions.
(§6) The completely terminated kinase reactions are transferred using a harvester on pre-wetted UniFilter-96 plates (UniFilter-96 GF/B, PerkinElmer Inc., Cat #6005177).
(§7) After harvesting the kinase reactions, the filter plates are washed 6 times with phosphoric acid (75 mM). The back of the UniFilter-96 plates are sealed and 40 μL MicroScint-20 (PerkinElmer Inc., Cat #6013621) is added to each well. The top of the plates are sealed with TopSeal-A. Read-out is performed with a TopCount instrument (PerkinElmer Inc.).
(§8) Raw data are generated following the read-out performed on the TopCount, plotted to generate dose response curves to calculate percentage inhibition (PIN) and average IC50 for each SIK homologue which are reported in the table below.

Another test concerns the target T2, SIK2 (Homo sapiens, UniProt Q9H0K1).
T2 construct: purchased ThermoFisher Scientific PV4792
In words: 33P radioactive kinase assay, SIK2. Also: AMARA 5 µM, 10 µM ATP. Type of test: biochemical. The procedure:
as §1, §2, §3, §4, §5, §6, §7, §8

The test system of test [1] is C57BL/6N mice, bleomycin induced pulmonary fibrosis. The experiment in a line: Therapeutic bleomycin induced pulmonary fibrosis 21-day mice model. The class given is in vivo. The note with it: mouse, bleomycin 21-day; 10 mg/kg p.o. b.i.d. in PEG200/MC 0.5% 20/80 (v/v); meta-analysis of two pooled identical study runs. The procedure:
The aim of the study is to test the efficacy of a test compound at three different doses in a 21-day model of bleomycin induced pulmonary fibrosis in mice.
This study is carried out on C57BL/6N male mice, supplied by Charles River (Calco, Italy), which are acclimatized for at least 5 days in an environment maintained at 22° C., at 55% relative humidity, with 15-20 air changes per hour under light cycles of 12 h. Mice pelleted food and water are provided ad libitum.
The solvent for the test solutions is prepared by adding 0.5 g of hydroxyethylcellulose (Natrosol™) into 500 mL aqua distillate (0.1%) under continuous stirring without heating for 5 h on a magnetic stirrer.
To prepare a solution for intranasal (i.n.) challenge, 0.8 mg/mL stock solutions of bleomycin (Cat #BML-AP302-0010, Enzo Life Sciences, Inc., USA) are thawed and diluted in 330 μL of saline. Prior to i.n. administration, mice are anesthetized i.p.
Finally, test compound solutions are prepared by dissolving the suitable amount of said test compound in PEG 400 or PEG 200 (20% of the final volume) then MC 0.5% (80% of the final volume) to reach final concentrations of 1 mg/mL, 0.3 mg/mL and 0.1 mg/mL, thus yielding compound for a doses of 10 mg/kg, 3 mg/kg and 1 mg/kg. […]
Pulmonary histological changes are assessed using Matsuse modification of Ashcroft score (Ashcroft et al. 1988; Matsuse et al. 1999). […]

For a further test, the system named is mouse CIA model. In words: Collagen induced arthritis (CIA) model. Type of test: in vivo. The procedure:
Completed Freund's adjuvant (CFA) and incomplete Freund's adjuvant (IFA) were purchased from Difco. Bovine collagen type II (CII), lipopolysaccharide (LPS), and Enbrel® (etanercept) were obtained from Chondrex (L'Isle d'Abeau, France); Sigma (P4252, L'Isle d'Abeau, France), Wyeth (25 mg injectable syringe, France), respectively. All other reagents used were of reagent grade and all solvents were of analytical grade.
DBA1/J mice (male, 7-8 weeks old) were obtained from Charles River Laboratories (Écully, France). Mice were kept on a 12 h light/dark cycle. Temperature was maintained at 22° C., and food and water were provided ad libitum.
One day before the experiment, CII solution (2 mg/mL) was prepared with 0.05 M AcOH and stored at 4° C. Just before the immunization, equal volumes of adjuvant (IFA) and CII were mixed by a homogenizer in a pre-cooled glass bottle in an ice water bath. Extra adjuvant and prolonged homogenization may be required if an emulsion is not formed. 0.2 mL of the emulsion was injected intradermally at the base of the tail of each mouse on day 1, a second booster intradermal injection (CII solution at 2 mg/mL in […] 0.1 mL saline) was performed on […]. This immunization method was modified from published methods (Jou et al. 2005; Sims et al. 2004).
The therapeutic effects of the compounds were tested in the mouse CIA model. Mice were randomly divided into equal groups and each group contained 10 mice. All mice were immunized on day 1 and boosted on day 21. The negative control group was treated with vehicle (MC 0.5%) and the positive control group with Enbrel® (10 mg/kg, 3× week, sc). A compound of interest was typically tested at 3 doses per os (p.o.). At day 32, randomization between groups was performed with respect with clinical score and animals were therapeutically treated regarding their group until day 47. Body weight and clinical score, were recorded at least twice a week.
Arthritis is scored according to the method of Khachigian 2006, Lin et al 2007 and Nishida et al. 2004 (Khachigian 2006; Lin et al. 2007; Nishida et al. 2004). […]

SMILES strings stand for the structures.

T2 sequence (Q9H0K1 whole entry): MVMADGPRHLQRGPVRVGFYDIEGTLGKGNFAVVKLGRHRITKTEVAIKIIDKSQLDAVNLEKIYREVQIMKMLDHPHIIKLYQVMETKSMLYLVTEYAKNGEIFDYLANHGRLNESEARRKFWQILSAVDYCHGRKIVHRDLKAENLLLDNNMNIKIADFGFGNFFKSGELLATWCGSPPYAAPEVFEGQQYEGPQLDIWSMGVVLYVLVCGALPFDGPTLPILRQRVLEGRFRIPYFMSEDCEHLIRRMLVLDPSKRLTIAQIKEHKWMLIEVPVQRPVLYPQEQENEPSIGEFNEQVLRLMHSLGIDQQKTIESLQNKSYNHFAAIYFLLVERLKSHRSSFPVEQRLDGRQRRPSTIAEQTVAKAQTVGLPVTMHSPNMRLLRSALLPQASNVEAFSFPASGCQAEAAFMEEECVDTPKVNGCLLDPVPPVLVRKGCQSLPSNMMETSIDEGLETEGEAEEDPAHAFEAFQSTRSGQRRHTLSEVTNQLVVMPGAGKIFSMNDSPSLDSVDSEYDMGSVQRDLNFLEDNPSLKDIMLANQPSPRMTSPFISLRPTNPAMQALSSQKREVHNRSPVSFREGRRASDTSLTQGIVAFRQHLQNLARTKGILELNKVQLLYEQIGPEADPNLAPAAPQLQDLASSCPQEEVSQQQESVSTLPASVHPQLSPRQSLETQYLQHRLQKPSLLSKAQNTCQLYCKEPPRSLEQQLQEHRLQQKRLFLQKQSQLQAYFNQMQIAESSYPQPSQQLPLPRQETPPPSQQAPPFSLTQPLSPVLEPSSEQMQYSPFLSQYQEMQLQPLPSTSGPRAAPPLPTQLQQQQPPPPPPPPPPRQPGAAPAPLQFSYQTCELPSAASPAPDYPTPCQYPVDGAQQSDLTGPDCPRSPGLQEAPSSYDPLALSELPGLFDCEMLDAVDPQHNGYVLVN
T1 sequence (P57059 whole entry): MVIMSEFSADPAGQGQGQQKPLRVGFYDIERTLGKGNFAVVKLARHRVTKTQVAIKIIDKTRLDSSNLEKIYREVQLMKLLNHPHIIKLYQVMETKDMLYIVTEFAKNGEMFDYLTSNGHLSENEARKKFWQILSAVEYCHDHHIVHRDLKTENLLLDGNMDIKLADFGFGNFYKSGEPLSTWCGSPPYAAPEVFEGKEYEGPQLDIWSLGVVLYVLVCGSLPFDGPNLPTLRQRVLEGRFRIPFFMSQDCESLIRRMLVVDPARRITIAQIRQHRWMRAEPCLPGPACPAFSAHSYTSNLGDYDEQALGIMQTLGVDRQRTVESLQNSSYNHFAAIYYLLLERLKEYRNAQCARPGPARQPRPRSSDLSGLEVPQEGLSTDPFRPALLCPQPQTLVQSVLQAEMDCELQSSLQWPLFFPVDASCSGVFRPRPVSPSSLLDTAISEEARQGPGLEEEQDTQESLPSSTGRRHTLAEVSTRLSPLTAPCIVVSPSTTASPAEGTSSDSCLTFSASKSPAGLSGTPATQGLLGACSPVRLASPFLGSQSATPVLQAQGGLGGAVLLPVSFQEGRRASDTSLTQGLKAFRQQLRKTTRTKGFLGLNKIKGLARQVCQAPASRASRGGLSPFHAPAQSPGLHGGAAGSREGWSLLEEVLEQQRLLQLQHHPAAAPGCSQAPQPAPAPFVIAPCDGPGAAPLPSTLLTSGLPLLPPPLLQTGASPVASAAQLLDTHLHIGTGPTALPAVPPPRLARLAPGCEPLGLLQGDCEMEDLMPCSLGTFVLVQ

Take `COc1cc(-c2cnc3cc(C4(C#N)CC4)ccn23)cc(OC(F)F)c1C(=O)NC1CC1` [Cpd 33, 4-[7-(1-cyanocyclopropyl)imidazo[1,2-a]pyridin-3-yl]-N-cyclopropyl-2-(difluoromethoxy)-6-methoxy-benzamide]: the IC50 at SIK1 fell in the range of 100 to 500 nM; at SIK2 it was 10 to 100 nM.
For the compound `COc1cc(-c2cnc3cc(C(C)(C)C#N)ccn23)cc(OC)c1C(=O)NC1CC1` [Cpd 28, 4-[7-(1-cyano-1-methyl-ethyl)imidazo[1,2-a]pyridin-3-yl]-N-cyclopropyl-2,6-dimethoxy-benzamide], the IC50 on SIK1 and on SIK2 was above 500 nM each time.
In the case of `COc1cc(-c2cnc3cc(C(C)(C)C#N)ccn23)cc(OC(F)F)c1C(=O)NC1CC1` [Cpd 19, 4-[7-(1-cyano-1-methyl-ethyl)imidazo[1,2-a]pyridin-3-yl]-N-cyclopropyl-2-(difluoromethoxy)-6-methoxy-benzamide], the concentration for half-maximal inhibition (IC50) on SIK1 and on SIK2 was above 500 nM throughout.
Consider `COc1cc(-c2cnn3cc(C(C)(C)C#N)ccc23)cc(OC(F)F)c1C(=O)N[C@@H]1C[C@@H]1F` [Cpd 219, 4-[6-(1-cyano-1-methyl-ethyl)pyrazolo[1,5-a]pyridin-3-yl]-2-(difluoromethoxy)-N-[(1R,2S)-2-fluorocyclopropyl]-6-methoxy-benzamide], for which, in test [1], the “Ashcroft score compared to the vehicle group” value is “statistically significant decrease”. Besides, the “clinical score compared to the vehicle group” value in the test with mouse CIA model (3 mg/kg p.o. b.i.d.) is given as “statistically significant decrease”.
Take `COc1cc(-c2cnc3cc(C4COC4)ccn23)cc(OC(F)F)c1C(=O)NC1CC1` [Cpd 174, N-cyclopropyl-2-(difluoromethoxy)-6-methoxy-4-[7-(oxetan-3-yl)imidazo[1,2-a]pyridin-3-yl]benzamide]: the “clinical score compared to the vehicle group” value in the test with mouse CIA model (60 mg/kg p.o. b.i.d.) is “statistically significant decrease”.
As to `COc1cc(-c2cnn3cc(C4(N)CCC4)ccc23)cc(OC(F)F)c1C(=O)N[C@@H]1C[C@@H]1F` [Cpd 261, 4-[6-(1-aminocyclobutyl)pyrazolo[1,5-a]pyridin-3-yl]-2-(difluoromethoxy)-N-[(1R,2S)-2-fluorocyclopropyl]-6-methoxy-benzamide], in the test with mouse CIA model (30 mg/kg p.o. b.i.d.), the “clinical score compared to the vehicle group” value is reported as “statistically significant decrease”.
In the case of `CCC(C)(C#N)c1ccn2c(-c3cc(OC)c(C(=O)NC4CC4)c(OC(F)F)c3)cnc2c1` (stereo not drawn) [Cpd 27, 4-[7-(1-cyano-1-methyl-propyl)imidazo[1,2-a]pyridin-3-yl]-N-cyclopropyl-2-(difluoromethoxy)-6-methoxy-benzamide], the IC50 on SIK1 and at SIK2 was above 500 nM in each case.
